These results are taken from ChEMBL document CHEMBL1201862, “PubChem BioAssay data set” (2004).

Assay [1] deals with Nonstructural protein 1 (Influenza A virus, UniProt Q194T2). Type of assay: functional, Influenza A virus (A/California/07/2009(H1N1)).
A short description of assay [2]: HeLa cell cytotoxicity, dose response, cytotoxicity control, CellTiter-Glo luminescence, dry powder, set 2 (AID 720593). Type of assay: functional, cell-based. On the technique in general: In ATP-based viability assays light output follows the ATP content of the culture.
The subject of assay [3] is Streptococcus. In words: Group A Streptococcus viability loss, dose response, counter-screen for streptokinase expression inhibitor project, luminescence, BacTiterGlo (AID 1915).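 Note: potency for reduction of bacterial viability or growth.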 Type of assay: functional, organism-based.
The test system of assay [4] is Streptococcus sp. 'group A'. In words: growth inhibition of control SK(-) GAS strain, dose response, counter-screen for streptokinase expression inhibitor project, luminescence, kanamycin, BacTiterGlo, confirmation (AID 1900). Type of assay: functional, organism-based. On the technique in general: The purpose of a counterscreen is to sort out artefacts and off-target activity.

A short description of assay [5]: human group III sPLA2 inhibitors, dose response, biochemical, QFRET, IC50 (AID 743457).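 Note: green fluorescence rise as the enzyme cleaves BODIPY PC-A2 in liposomes; potency for inhibition of the enzyme.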
For assay [6], the system named is Vero. The assay is described as follows: cells. Type of assay: functional. The following applies: Chlorocebus sabaeus.
For assay [7], the target named is T1, Beta-lactamase (Pseudomonas aeruginosa, UniProt Q79MP6). In words: IMP-1 metallo-beta-lactamase inhibitors, dose response, selectivity assay for VIM-2 inhibitor project, biochemical, epi-absorbance (AID 1920).
The target of assay [8] is T1, Beta-lactamase. The assay is described as follows: […] counterscreen for selective VIM-2 inhibitors: dose response biochemical high throughput screening assay to identify inhibitors of IMP-1 metallo-beta-lactamase.
In assay [9] the target is Beta-lactamase (Salmonella choleraesuis (strain SC-B67), UniProt Q5J463). The assay is described as follows: Epi-absorbance-based counterscreen for selective VIM-2 inhibitors: dose response biochemical high throughput screening assay to identify inhibitors of TEM-1 serine-beta-lactamase.
The nature of assay [10]: cells. The following applies: HEK293.
Assay [11] in a line: cells.
Assay [12] in a line: cells. The conditions noted are these: A549.
Assay [13] can be described thus: HepG2 cell cytotoxicity, dose response, cytotoxicity control, ATP luminescence, cherry-pick, set 6 (AID 1053125). Type of assay: functional, cell-based.
For assay [14], the target named is Albumin (Bos taurus, UniProt P02769). The assay is described as follows: Counterscreen for inhibitors of T-cell receptor (TCR)-CD3 interaction: Fluorescence-based biochemical high throughput dose response assay to identify inhibitors of T-cell receptor (TCR)-CD3 interaction using a TAMRA-labeled BSA probe. Type of assay: functional.
The nature of assay [15]: Cryptococcus neoformans growth inhibition, dose response, Alamar Blue, cherry-picks (AID 686998). Type of assay: functional, organism-based. A general note: The colour change of resazurin is a common sign of viable cells or microbes.
In assay [16] the test system is HEK293. The assay is described as follows: HEK293T cell cytotoxicity, dose response, cytotoxicity control, ATP luminescence, cherry-pick samples (AID 687005).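 Note: cells exposed to compound for 48 hours.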 Type of assay: functional, cell-based. The following applies: Homo sapiens.
A short description of assay [17]: HEK293 Cytotoxicity Assay Measured in Cell-Based System Using Plate Reader - 7071-01_Inhibitor_Dose_CherryPick_Activity_Set2. Type of assay: functional.
In assay [18] the test system is H4. In words: Luminescence Cell-Based Dose Response HTS to Identify Activators of 5'UTR Stem-Loop Driven Prion Protein mRNA Translation in H4 Neuroglioblastoma Cells. [Related pubchem assays: 1829 (Project Summary), 1814 (Primary HTS)]. Type of assay: functional. The following applies: Homo sapiens.
Assay [19] can be described thus: HepG2 cell cytotoxicity, dose response, cytotoxicity control, ATP luminescence, cherry-pick, activator set 2 (AID 1053143). Type of assay: functional, cell-based.
The nature of assay [20]: Luminescence Cell-Based Dose Response HTS to Identify Activators of Luciferase Translation or Activity in H4 […] Cells. [Related pubchem assays: 1829 (Project Summary), 1814 (Primary HTS)]. Type of assay: functional.
Assay [21] concerns INS1. The assay is described as follows: beta cell apoptosis inhibitors, cytokine rescue, dose response, luminescence, retest (AID 449756).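 Note: cell death triggered by IL-1 beta plus TNF-alpha plus IFN-gamma mixture; protective hits raise ATP signal compared with cytokine alone wells.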 Type of assay: functional, cell-based. The conditions noted are these: Rattus norvegicus.
The nature of assay [22]: Luminescence Cell-Based Dose Confirmation HTS to Identify Activators of 5'UTR Stem-Loop Driven Alpha-Synuclein mRNA Translation in H4 Neuroglioblastoma Cells. [Related pubchem assays: 1829 (Project Summary), 1814 (Primary HTS)]. Type of assay: functional.
Assay [23] concerns HEK293. In words: cells. Type of assay: functional, cell-based. The conditions noted are these: Homo sapiens.
Assay [24] addresses Luciferin 4-monooxygenase (Photinus pyralis, UniProt P08659). The assay is described as follows: firefly luciferase enzyme inhibitors, dose response, biochemical, luminescence (AID 1891).
Assay [25] concerns BJ. The assay is described as follows: cytotoxicity toward BJ-TERT fibroblasts, dose response, cell-based, RAS-independent, luminescence (AID 1933). Type of assay: functional. The following applies: Homo sapiens.
Assay [26] in a line: cytotoxicity toward DRD oncogenic fibroblasts, dose response, cell-based, non-viral oncogenic, luminescence (AID 1934). Type of assay: functional. The conditions noted are these: Homo sapiens.
Assay [27] relates to BJ. In words: cytotoxicity toward BJ-TERT-LT-ST fibroblasts, dose response, cell-based, RAS-independent, luminescence (AID 1935).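 Note: BJ fibroblasts immortalized with TERT plus LT and ST oncogenes.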 Type of assay: functional. The conditions noted are these: Homo sapiens.
Assay [28] can be described thus: Luminescence Cell-Based Dose Confirmation HTS to Identify Inhibitors of Platelet Dense Granule Release. [Related pubchem assays: 1663 (Primary HTS), 1678 (Summary of Project)]. Type of assay: functional.
The target of assay [29] is Nucleotide-binding oligomerization domain-containing protein 2 (Homo sapiens, UniProt Q9HC29). In words: NOD2 signaling inhibitors, cell-based, luminescence, uHTS, HEK293 (AID 1566). Type of assay: functional.
Assay [30] concerns HEK293. The assay is described as follows: cells. The following applies: Homo sapiens. Type of assay: functional, cell-based. This is another data set of the same source.
The target in assay [31] is Disintegrin and metalloproteinase domain-containing protein 17 (Homo sapiens, UniProt P78536). The assay is described as follows: exosite inhibitors of ADAM17, dose response, biochemical (AID 743260).
The test system of assay [32] is HEK293. The assay is described as follows: cells. Type of assay: functional, cell-based. The following applies: Homo sapiens. This is another data set of the same source.
Assay [33] is described as follows: ADAM10 protease inhibitors, dose response, selectivity assay for ADAM17 exosite inhibitor project, biochemical, FRET peptide substrate, recombinant human ADAM10 (AID 743259).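 Note: ADAM10 enzyme cleaving a FRET peptide substrate.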
The subject of assay [34] is BJ. In words: cells. Type of assay: functional, cell-based. The following applies: Homo sapiens.
In assay [35] the test system is HEK293. In words: NOD1 signaling inhibitors, primary screen, cell-based, luminescence, uHTS (AID 1578). Type of assay: functional. The following applies: Homo sapiens.

Calls of active or inactive are those of the source. A value given as a limit tells only on which side of the number the result lay.

T1 sequence (Q79MP6 whole entry): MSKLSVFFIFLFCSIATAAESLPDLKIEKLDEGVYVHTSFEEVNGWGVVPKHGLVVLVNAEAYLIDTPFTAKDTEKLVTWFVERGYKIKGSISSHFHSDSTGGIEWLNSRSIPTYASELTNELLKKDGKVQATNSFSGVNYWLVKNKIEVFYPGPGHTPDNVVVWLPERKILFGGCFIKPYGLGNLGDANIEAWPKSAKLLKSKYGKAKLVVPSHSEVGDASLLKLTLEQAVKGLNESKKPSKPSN
Chain of Albumin (P02769 whole entry): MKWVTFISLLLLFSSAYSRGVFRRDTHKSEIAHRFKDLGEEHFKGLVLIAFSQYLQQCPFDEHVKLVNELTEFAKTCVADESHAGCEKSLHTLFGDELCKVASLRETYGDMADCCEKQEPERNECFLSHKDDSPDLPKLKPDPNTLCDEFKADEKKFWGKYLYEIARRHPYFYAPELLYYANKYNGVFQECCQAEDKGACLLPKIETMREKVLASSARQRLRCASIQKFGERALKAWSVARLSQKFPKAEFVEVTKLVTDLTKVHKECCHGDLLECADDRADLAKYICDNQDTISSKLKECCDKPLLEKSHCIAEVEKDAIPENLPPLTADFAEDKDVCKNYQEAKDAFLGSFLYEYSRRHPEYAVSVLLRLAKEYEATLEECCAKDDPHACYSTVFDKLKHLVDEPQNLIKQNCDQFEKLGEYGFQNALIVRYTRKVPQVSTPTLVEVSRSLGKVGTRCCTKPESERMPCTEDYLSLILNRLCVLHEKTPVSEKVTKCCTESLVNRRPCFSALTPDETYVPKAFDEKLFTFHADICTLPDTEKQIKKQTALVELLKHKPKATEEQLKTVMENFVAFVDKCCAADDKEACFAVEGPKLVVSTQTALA
Chain of Disintegrin and metalloproteinase domain-containing protein 17 (P78536 whole entry, the tested form may be a part): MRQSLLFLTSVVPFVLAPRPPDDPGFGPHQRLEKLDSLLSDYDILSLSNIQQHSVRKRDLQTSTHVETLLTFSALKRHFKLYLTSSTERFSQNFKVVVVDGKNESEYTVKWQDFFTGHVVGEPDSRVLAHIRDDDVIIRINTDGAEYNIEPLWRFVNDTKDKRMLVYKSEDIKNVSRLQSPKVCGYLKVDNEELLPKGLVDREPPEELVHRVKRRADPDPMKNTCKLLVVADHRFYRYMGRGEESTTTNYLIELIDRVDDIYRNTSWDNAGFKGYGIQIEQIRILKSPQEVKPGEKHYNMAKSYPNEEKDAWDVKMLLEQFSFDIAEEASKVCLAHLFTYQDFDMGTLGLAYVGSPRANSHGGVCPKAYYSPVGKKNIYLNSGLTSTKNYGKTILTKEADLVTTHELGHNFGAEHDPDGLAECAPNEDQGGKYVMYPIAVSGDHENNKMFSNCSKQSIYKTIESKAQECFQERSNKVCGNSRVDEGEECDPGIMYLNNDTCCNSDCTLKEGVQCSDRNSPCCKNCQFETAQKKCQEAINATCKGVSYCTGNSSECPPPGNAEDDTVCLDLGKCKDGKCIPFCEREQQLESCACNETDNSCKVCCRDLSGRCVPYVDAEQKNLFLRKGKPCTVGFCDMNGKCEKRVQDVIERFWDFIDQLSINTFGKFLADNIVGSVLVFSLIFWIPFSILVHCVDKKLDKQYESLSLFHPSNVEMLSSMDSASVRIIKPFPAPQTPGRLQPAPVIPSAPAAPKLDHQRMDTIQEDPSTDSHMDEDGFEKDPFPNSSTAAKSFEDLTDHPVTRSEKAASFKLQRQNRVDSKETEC
Chain of Beta-lactamase (Salmonella choleraesuis (strain SC-B67), UniProt Q5J463) (Q5J463 whole entry): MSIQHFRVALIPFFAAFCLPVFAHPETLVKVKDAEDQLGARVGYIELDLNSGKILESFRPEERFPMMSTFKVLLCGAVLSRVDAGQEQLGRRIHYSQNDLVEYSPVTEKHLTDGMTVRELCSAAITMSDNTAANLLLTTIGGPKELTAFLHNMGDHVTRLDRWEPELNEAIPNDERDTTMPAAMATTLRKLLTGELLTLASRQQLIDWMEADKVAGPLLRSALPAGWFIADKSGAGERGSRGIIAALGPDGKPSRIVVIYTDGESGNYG
Chain of Nucleotide-binding oligomerization domain-containing protein 2 (Q9HC29 whole entry, the tested form may be a part): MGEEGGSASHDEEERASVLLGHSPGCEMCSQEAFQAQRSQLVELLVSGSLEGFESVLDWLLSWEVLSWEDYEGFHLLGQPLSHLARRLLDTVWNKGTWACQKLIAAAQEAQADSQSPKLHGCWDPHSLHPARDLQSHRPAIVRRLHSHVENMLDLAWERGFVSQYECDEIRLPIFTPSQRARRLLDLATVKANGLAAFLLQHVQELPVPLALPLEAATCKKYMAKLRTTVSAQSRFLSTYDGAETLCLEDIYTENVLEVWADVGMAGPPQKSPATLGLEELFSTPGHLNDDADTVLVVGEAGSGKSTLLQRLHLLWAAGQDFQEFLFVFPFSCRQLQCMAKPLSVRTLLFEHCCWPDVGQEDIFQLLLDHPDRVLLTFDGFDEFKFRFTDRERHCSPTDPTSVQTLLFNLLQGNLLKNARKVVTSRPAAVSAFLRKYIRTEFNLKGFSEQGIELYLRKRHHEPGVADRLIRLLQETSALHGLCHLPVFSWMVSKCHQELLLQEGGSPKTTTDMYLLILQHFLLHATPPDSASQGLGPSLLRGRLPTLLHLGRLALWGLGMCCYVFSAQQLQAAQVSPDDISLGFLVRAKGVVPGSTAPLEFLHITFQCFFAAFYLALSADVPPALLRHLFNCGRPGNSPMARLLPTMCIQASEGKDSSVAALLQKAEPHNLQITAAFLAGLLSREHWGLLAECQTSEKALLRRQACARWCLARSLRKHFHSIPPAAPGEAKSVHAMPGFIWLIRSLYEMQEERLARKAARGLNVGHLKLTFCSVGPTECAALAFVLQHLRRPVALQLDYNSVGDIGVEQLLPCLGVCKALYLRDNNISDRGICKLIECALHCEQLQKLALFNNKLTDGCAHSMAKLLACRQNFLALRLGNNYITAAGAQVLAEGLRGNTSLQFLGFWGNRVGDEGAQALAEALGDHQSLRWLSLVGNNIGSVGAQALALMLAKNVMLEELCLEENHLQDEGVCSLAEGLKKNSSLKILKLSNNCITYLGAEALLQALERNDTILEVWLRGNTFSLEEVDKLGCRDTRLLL
Chain of Luciferin 4-monooxygenase (P08659 whole entry): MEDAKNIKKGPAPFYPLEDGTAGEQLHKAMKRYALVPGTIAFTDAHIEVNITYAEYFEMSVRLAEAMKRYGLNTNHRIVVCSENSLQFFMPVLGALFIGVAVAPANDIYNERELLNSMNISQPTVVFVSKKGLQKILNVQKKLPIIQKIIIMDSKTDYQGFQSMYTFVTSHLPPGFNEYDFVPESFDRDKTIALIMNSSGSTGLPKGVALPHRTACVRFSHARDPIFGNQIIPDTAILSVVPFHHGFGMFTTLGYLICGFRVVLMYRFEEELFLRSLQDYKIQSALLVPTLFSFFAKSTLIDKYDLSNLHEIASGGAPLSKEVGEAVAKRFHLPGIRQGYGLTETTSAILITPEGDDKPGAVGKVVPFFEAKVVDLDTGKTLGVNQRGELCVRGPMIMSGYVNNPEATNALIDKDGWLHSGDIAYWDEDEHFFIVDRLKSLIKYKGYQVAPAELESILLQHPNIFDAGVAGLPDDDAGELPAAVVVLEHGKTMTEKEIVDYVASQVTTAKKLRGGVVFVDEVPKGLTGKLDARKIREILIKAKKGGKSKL
Chain of Nonstructural protein 1 (Q194T2 whole entry): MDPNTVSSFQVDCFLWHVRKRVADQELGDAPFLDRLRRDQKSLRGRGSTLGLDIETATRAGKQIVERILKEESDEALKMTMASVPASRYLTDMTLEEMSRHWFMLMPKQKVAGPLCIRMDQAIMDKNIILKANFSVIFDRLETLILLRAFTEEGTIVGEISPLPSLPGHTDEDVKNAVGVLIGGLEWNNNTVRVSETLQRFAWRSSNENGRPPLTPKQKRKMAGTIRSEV

In general, IC50 refers to the concentration at which inhibition is half-maximal. A word on the AC50: it is the concentration giving half of the maximal activity seen. For the compound `c1ccc(-c2n[nH]c(-c3ccncc3)n2)nc1`, the IC50 in [1] was 9.19 µM (active). Besides, the AC50 in assay [2] was > 52 µM (inactive).
A word on the EC50: it is the concentration needed to bring the measured effect to its halfway point. As a reminder, the CC50 is the concentration that lowers cell viability or growth by half. Turning to `COc1ccc(C(=O)NC(=S)NNC(=O)[C@H]2C[C@@H]2c2ccccc2)cc1OC`, the EC50 was 3.19 µM (active) in assay [3] and 1.36 µM (active) in assay [4]. Further, the IC50 in [5] was 65.8 µM (inactive). Also, the CC50 in [6] is > 25 µM (active).
On to `O=Cc1c(O)nc2ccccc2c1NCc1ccc(Cl)cc1`, for which the IC50 in [7], in assay [8] and in [9] was > 59.6 µM (inactive) in each case.
With `Nc1c(C(=O)NCc2ccccc2)c2nc3ccccc3nc2n1CCCN1CCOCC1`, the AC50 was 25.2 µM (active) in [10], 32.1 µM (active) in assay [11], 15.6 µM (active) in assay [12] and 17.1 µM (active) in assay [13].
As for `O=c1cc(-c2ccc(O)c(O)c2)oc2ccc3ccccc3c12`, the IC50 in assay [14] is > 94.2 µM (inactive).
With `COC(=O)C1=C(C)N(C)C(S)=NC1c1ccccc1` (stereo not given), the AC50 in assay [15] was 120 µM (active); in assay [16] it was > 92 µM (inactive); in assay [17], > 92 µM (inactive).
Turning to `COc1ccc(C2CC(c3ccc4ccccc4c3OC(C)=O)=NN2C(C)=O)cc1` (stereo not given), the results for the EC50 in assay [18], in [20] and in assay [22] were 0.456 µM (active), 3.82 µM (active) and 0.512 µM (active), respectively. The figures for the AC50 in [19] and in assay [21] were 26 µM (active) and 3.3 µM (active), respectively.
In the case of `Cc1ccccc1S(=O)(=O)Cc1ccc(C(=O)N2CCN(c3cccc(C)c3C)CC2)o1`, the IC50 in assay [23] is 10.5 µM (active); in [30], > 20 µM (inactive); in assay [31], > 69.6 µM (inactive); in assay [32], 3.96 µM (active); in assay [33], 11.7 µM (inactive). In addition, the EC50 was 28.5 µM (active) in [24]; 11.1 µM (active) in assay [25]; 4.95 µM (active) in assay [26]; 4.92 µM (active) in [27]; > 112 µM (not active) in assay [28]; 10.8 µM (active) in assay [29]. In addition, the EC50 in [34] was 10 µM (inconclusive); in [35], 5.29 µM (active).
